Converted amounts (≈) assume the structure as drawn.
Key:
[1] = system: mouse HII4E hepatoma cells; assay: In vitro acute toxicity, MTT cell viability assay; format: cell-based; settings: 24 h exposure
Protocol: Acute cytotoxicity measurements were performed by the MTT method. The 3-(4,5-dimethylthiazol-2-yl)-2,5-diphenyltetrazolium bromide (MTT) assay was used to quantify metabolically viable cells in all samples. Adherent cells (mouse HII4E hepatoma cells) were seeded onto 96-well plates, allowed to attach for 24 h and exposed to the test compound for the following 24 h. Positive control (hydrogen peroxide), negative control (DMSO) and chloramphenicol were also included. At 48 h of culture, MTT was added to the cells at a final concentration of 0.5 mg/mL, followed by an incubation period of 3 h to allow the formazan crystals to form. After incubation, medium was removed, cells were washed twice to remove traces of medium and un-metabolized MTT, and DMSO (100 μL) was added to each well. Solubilisation of formazan crystals was performed by agitation in a 96-well plate shaker for 20 min at room temperature. Absorbance of each well was quantified at 550 nm, using 620 nm as reference wavelength on a scanning multiwell spectrophotometer (automated microplate reader).

[2] = system: STZ induced diabetic Wistar rats; settings: previous research work; cited from earlier work
Solubility in PBS = format: physicochemical; settings: pure compound in PBS
[3] = 1H-NMR 2D DOSY diffusion coefficient; format: physicochemical; settings: DOSY spectrum acquired on the G. tenera extract at 25° C.
Protocol: NMR experiments were recorded on a Varian 400-MHz Mercury instrument. The basic VARIAN sequences were employed for 2D-TOCSY, 2D-NOESY, ^13C-HSQC, DOSY and STD experiments. […] A ^1H spectrum was acquired with a recycle delay of 60 s to achieve the complete relaxation of all the resonances at each scan.

Aβ1-42 oligomers = biological target: T1, Aβ1-42 oligomers (Homo sapiens, UniProt P05067); assay: NMR binding studies (STD-NMR, trNOESY) with beta-amyloid oligomers; settings: Aβ1-42 80 uM, deuterated PBS pH 7.5
T1 construct: lyophilized Aβ1-42 was dissolved in 10 mM NaOD in D2O at a concentration of 160 μM
T1 sequence (P05067 672-713): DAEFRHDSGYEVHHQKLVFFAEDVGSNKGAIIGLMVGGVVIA
Protocol: The selection was made through sample characterization by NMR spectroscopy, as previously described Immediately before use, lyophilized Aβ1-42 was dissolved in 10 mM NaOD in D2O at a concentration of 160 μM, then diluted 1:1 with 10 mM phosphate buffer saline, pH 7.4 containing 100 mM NaCl (PBS) and ethyl acetate extract of G. tenera or one of the tested compounds. […] The pH of each sample was verified with a Microelectrode (Mettler Toledo) for 5 mm NMR tubes and adjusted with NaOD and/or DCl. All pH values were corrected for isotope effect.
NMR experiments were recorded on a Varian 400-MHz Mercury instrument. The basic VARIAN sequences were employed for 2D-TOCSY, 2D-NOESY, ^13C-HSQC, DOSY and STD experiments. For STD, a train of Gaussian-shaped pulses each of 50 ms was employed to saturate selectively the protein envelope; the total saturation time of the protein envelope was adjusted by the number of shaped pulses and was varied between 3 s and 0.3 s. A ^1H spectrum was acquired with a recycle delay of 60 s to achieve the complete relaxation of all the resonances at each scan.

O=C(N[C@H](CO)[C@H](O)c1ccc([N+](=O)[O-])cc1)C(Cl)Cl [Chloramphenicol, chloramphenicol]
IC50 [1]: 143 µg/mL (≈ 443 µM)

OO [Compound H2O2, hydrogen peroxide]
IC50 in vitro acute toxicity [1]: 2 µg/mL (≈ 58.8 µM)

C[S+](C)[O-] [DMSO]
IC50 in vitro acute toxicity [1]: 199 µg/mL (≈ 2550 µM)

O=c1cc(-c2ccc(O)cc2)oc2cc(O)cc(O)c12 [apigenin]
blood glucose levels [2]: significantly lowered blood glucose levels

COc1cc(-c2cc(=O)c3c(O)cc(O)cc3o2)ccc1O [chrysoeriol]
blood glucose levels [2]: significantly lowered blood glucose levels

O=c1c(-c2ccc(O)cc2)coc2cc(O[C@@H]3O[C@H](CO)[C@@H](O)[C@H](O)[C@H]3O)cc(O)c12 [genistein-7-O-glucoside, Genistein 7-O-β-D-glucoside]
solubility in PBS (Solubility in PBS): insolubility
diffusion coefficient [3]: 2.65±0.035 10^−10 m^2/s

O=c1c(-c2ccc(O)cc2)coc2cc(O)cc(O)c12 [genistein]
binding to Aβ1-42 oligomers (STD-NMR, trNOESY), words (Aβ1-42 oligomers): efficient Aβ oligomer ligand
blood glucose levels [2]: significantly lowered blood glucose levels
